Measured values published in patent publication US20230414581A1, “SARM1 ENZYME ACTIVITY INHIBITOR AND USE THEREOF IN NEURODEGENERATIVE DISEASES” (ARTIVILA BIOPHARMA, priority 2020, published 2023).

Key:
[1] = molecular target: T1, dN-SARM1 (Homo sapiens (Human), UniProt Q6SZW1); assay: In vitro biochemical test of inhibiting SARM1 enzyme activity (IC50), PC6 fluorescence method; conditions: dN-SARM1 0.05 μg/ml; 50 μM NAD, 50 μM PC6, 50 μM NMN activator; 10 min pre-incubation
Experimental: First, 200 μM of the compound was added to a 50 mM Tris-HCl (pH 7.5) solution containing 0.05 μg/ml dN-SARM1. Then half of the mixture was added to an equal volume of 50 mM Tris-HCl (pH 7.5) solution containing 0.05 μg/ml dN-SARM1 (pH 7.5) for mixing. The drug was diluted 6 times by analogy to final concentrations of 200, 100, 50, 25, 12.5, 6.25, 3.125 μM, or 200, 50, 12.5, 3.125, 0.78, 0.195, 0.049 μM. The solution without addition of inhibitor was control group. The above solutions were incubated at room temperature for 10 min.
(§1) Then 50 μM NAD, 50 μM PC6 as substrate and 50 μM NMN as activator were added to the dN-SARM1 protein incubated with inhibitor for 30 min of reaction at room temperature. The concentration of each component was the final concentration in the reaction system.
(§2) During the reaction process, PC6 fluorescence spectrum kinetics was detected by a microplate reader at an excitation wavelength and an emission wavelength of 390 nm and 520 nm, respectively. Finally, the activity of the protein was denoted by the reaction rate, and the half-inhibition concentration was calculated. The higher the reaction rate, the stronger the protein activity, and the lower the inhibition efficiency of the compound.

[2] = molecular target: SARM1 in iSARM1 (HEK293) cells (Homo sapiens (Human), UniProt Q6SZW1); assay: Inhibition of SARM1 activity in cell line with inducible overexpression of SARM1 (intracellular cADPR level); type: cell-based; conditions: 50 μM inhibitor, 100 μM CZ-48 activator, 16 h, cADPR content
Experimental: Firstly, a 96-well culture dish was treated with 0.05 mg/ml polylysine for 5 min, and washed once with PBS. 3×10^4 iSARM1 (HEK293) cells were plated into the 96-well plate and cultured in a 37° C. and 5% incubator overnight. The next day, the cells were added with an inhibitor with a final concentration of 50 μM, cultured in the incubator for 1.5 h, then added with the activator CZ-48 with a final concentration of 100 μM, and co-cultured for 16 h. In addition, a control group without addition of CZ-48 or drug was set up. Finally, the intracellular cADPR level was detected to denote the activity of SARM1, and the inhibition rate of SARM1 by 50 μM inhibitor in cells was calculated.
The cADPR assay was conducted as follows. First, the cells were washed once with PBS, and added with 150 μl of pre-cooled 0.6M perchloric acid (PCA) for rapid lysis of the cells and precipitation of proteins. […]
The content of cADPR in the solution was determined by Cycling analysis, which was operated as follows. […] Each well of the 96-well plate was added with the reaction solution containing or not containing cyclase for reaction, and the reaction kinetic curve within 30 min (Ex:Em=544/599) was recorded. The average slope of the reaction was calculated, and the accurate cADPR content was calculated by converting the cADPR standard. […]

[3] = molecular target: T1, dN-SARM1; assay: In vitro biochemical test of inhibiting SARM1 enzyme activity (% inhibition rate), PC6 fluorescence method; conditions: 50 μM compound; 0.05 μg/ml dN-SARM1; 50 μM NAD, 50 μM PC6, 50 μM NMN activator; 30 min room temperature
Experimental: The compounds were detected by PC6 fluorescence method [Chinese patent 202010528147.3] with the dN-SARM1 protein obtained in “Expression and purification of SARM1 protein” and “(4) Protein extraction” in Example 4 above.
as §1, with “First, 0.05 μg/ml dN-SARM1 and 50 μM compound were incubated in 50 mM Tris-HCl (pH 7.5) solution for 10 min. Then” for “Then”, “the drug” for “inhibitor”
as §2, with “rate.” for “rate, and the half-inhibition concentration was calculated.”

T1 sequence (Q6SZW1 28-724): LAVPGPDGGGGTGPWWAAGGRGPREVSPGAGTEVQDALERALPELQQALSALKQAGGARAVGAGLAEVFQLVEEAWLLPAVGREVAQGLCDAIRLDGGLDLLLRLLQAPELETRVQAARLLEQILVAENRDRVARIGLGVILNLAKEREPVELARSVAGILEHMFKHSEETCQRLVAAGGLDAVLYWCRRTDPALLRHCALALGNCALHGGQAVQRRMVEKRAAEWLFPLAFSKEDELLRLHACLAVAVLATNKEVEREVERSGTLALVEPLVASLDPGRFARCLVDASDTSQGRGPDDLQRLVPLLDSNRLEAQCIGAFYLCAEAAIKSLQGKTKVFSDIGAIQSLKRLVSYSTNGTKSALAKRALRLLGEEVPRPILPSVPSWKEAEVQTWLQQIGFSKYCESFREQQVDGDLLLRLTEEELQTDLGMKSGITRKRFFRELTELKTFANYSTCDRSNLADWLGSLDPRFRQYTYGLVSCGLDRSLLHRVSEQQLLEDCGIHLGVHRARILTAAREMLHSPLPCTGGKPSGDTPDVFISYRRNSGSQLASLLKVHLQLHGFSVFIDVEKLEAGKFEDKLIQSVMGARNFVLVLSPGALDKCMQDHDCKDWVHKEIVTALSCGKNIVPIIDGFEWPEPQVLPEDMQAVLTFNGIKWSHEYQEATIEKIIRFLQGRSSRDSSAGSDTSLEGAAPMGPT
Chain of SARM1 in iSARM1 (HEK293) cells (Q6SZW1 28-724): as above

IC50 [1] | Inhibition rate [2] | Inhibition rate of enzyme activity [3] | Compound
< 1000 nM |  |  | Cn1sc(=O)n(Cc2ccccc2)c1=O [Compound 1]
< 1000 nM | B (B: 25-50%) |  | O=c1sn(-c2ccccc2C(F)(F)F)c(=O)n1CC1CC1 [Compound 2]
< 1000 nM |  |  | Cn1c(=O)sn(-c2cccc3ccccc23)c1=O [Compound 3]
< 1000 nM |  |  | Cc1cccc(Cl)c1-n1sc(=O)n(CC2CC2)c1=O [Compound 4]
< 1000 nM |  |  | Cc1ccc(-n2sc(=O)n(Cc3ccc(F)cc3)c2=O)cc1 [Compound 6]
< 1000 nM |  | 98.6% | O=c1sn(-c2cccc3ccccc23)c(=O)n1Cc1ccccc1 [Compound 7]
1000 to 10000 nM |  |  | CC(C)c1ccc(-n2c(=O)sn(-c3ccc(SC(F)(F)F)cc3)c2=O)cc1 [Compound 8]
> 10000 nM |  | 93.7% | N#Cc1ccc(Cl)cc1Cc1cc(Cl)ccc1C#N [Compound 32]
> 10000 nM |  | 98.5% | N#Cc1c(Cl)cc(Cl)cc1Sc1cc(Cl)cc(Cl)c1O [Compound 36]
< 1000 nM |  | 101% | CCN(CC)C(=S)SSC(=S)N(CC)CC [Compound 37]
1000 to 10000 nM |  |  | CCn1c(=O)/c(=C2\Sc3ccccc3N2C)s/c1=C\c1cccc[n+]1CC [Compound 39]
 |  | 75.6% | O=C(CCCCCCC(=O)Nc1ccccc1)NO [Compound 40]
 |  | 67.3% | O=C(/C=C/c1ccc(CNCCc2c(O)[nH]c3ccccc23)cc1)NO [Compound 41]
 |  | 67.4% | O=C(C=Cc1cccc(S(=O)(=O)Nc2ccccc2)c1)NO [Compound 42]
> 10000 nM |  | 85.3% | O=C(CCCCCCNC(=O)c1cnc(N(c2ccccc2)c2ccccc2)nc1)NO [Compound 43]

Compound | IC50 [1] | Inhibition rate [2] | Inhibition rate of enzyme activity [3]
Oc1cc(Cl)ccc1Oc1ccc(Cl)cc1Cl [Compound 35] | > 10000 nM |  | 102%
